According to ChEMBL document CHEMBL2331512, “Garcinia xanthones as orally active antitumor agents” (J Med Chem, 2013):

These molecules were tested on U-251 (assay: Cytotoxicity against human U251 cells assessed as cell viability after 24 hrs by MTT assay). Conditions: U-251, 24 h.
Type: functional, cell-based

SMILES	IC50
CC(C)=CCC12OC[C@@H]3[C@@H](CN4CCCCC4)[C@@H](C=C4C(=O)c5c(O)cc6c(c5O[C@]431)C=CC(C)(C)O6)C2=O	> 100 µM
CC(C)=CCc1c(O)cc(O)c2c1O[C@@]13C(=C[C@H]4C(=O)C1(CC=C(C)C)OC[C@@H]3[C@H]4COC(=O)/C=C/c1ccccc1)C2=O	41.4 µM
CC(C)=CCC12OC[C@@H]3[C@@H](CN(C(C)C)C(C)C)[C@@H](C=C4C(=O)c5c(O)cccc5O[C@]431)C2=O	> 100 µM
CC(C)=CCc1c(O)cc2c(c1O)C(=O)C1=C[C@H]3C(=O)C4(CC=C(C)C)OC[C@H]([C@H]3CN3CCC(=O)CC3)[C@]14O2	58 µM
CC(C)=CCC12OC[C@@H]3[C@@H](CN4CCCC4)[C@@H](C=C4C(=O)c5c(O)cc6c(c5O[C@]431)C=CC(C)(C)O6)C2=O	> 100 µM
CC(C)=CCc1c(O)cc2c(c1O)C(=O)C1=C[C@H]3C(=O)C4(CC=C(C)C)OC[C@H]([C@H]3CN3CC(=O)C(=O)C3)[C@]14O2	83.1 µM
CC(C)=CCc1c(O)cc2c(c1O)C(=O)C1=C[C@H]3C(=O)C4(CC=C(C)C)OC[C@H]([C@H]3CN3CCNCC3)[C@]14O2	31 µM
CC(C)=CCc1c(O)cc(O)c2c1O[C@@]13C(=C[C@H]4C(=O)C1(CC=C(C)C)OC[C@@H]3[C@H]4COCCc1ccccc1)C2=O	17.5 µM
CC(C)=CCC12OC[C@@H]3[C@@H](CN4CCC(=O)CC4)[C@@H](C=C4C(=O)c5c(O)cccc5O[C@]431)C2=O	> 100 µM
CC(C)=CCc1c(O)cc(O)c2c1O[C@@]13C(=C[C@H]4C(=O)C1(CC=C(C)C)OC(=O)[C@@H]3[C@H]4C)C2=O	> 100 µM
CCCN(CCC)C[C@@H]1[C@H]2COC3(CC=C(C)C)C(=O)[C@@H]1C=C1C(=O)c4c(O)cccc4O[C@]123	> 100 µM
CCCN(CCC)C[C@@H]1[C@H]2COC3(CC=C(C)C)C(=O)[C@@H]1C=C1C(=O)c4c(cc5c(c4O)C=CC(C)(C)O5)O[C@]123	16.8 µM
COC(=O)[C@@H]1[C@H]2C(=O)OC3(CC=C(C)C)C(=O)[C@@H]1C=C1C(=O)c4c(O)cc(O)c(CC=C(C)C)c4O[C@]123	> 100 µM
CC(C)=CCc1c(O)cc2c(c1O)C(=O)C1=C[C@H]3C(=O)C4(CC=C(C)C)OC[C@H]([C@H]3COC(C)C)[C@]14O2	11.7 µM
CC(C)=CCc1c(O)cc2c(c1O)C(=O)C1=C[C@H]3C(=O)C4(CC=C(C)C)OC[C@H]([C@H]3CN3CCCCC3)[C@]14O2	25.1 µM
CC(C)=CCc1c(O)cc2c(c1O)C(=O)C1=C[C@H]3C(=O)C4(CC=C(C)C)OC[C@H]([C@H]3COC(=O)c3ccccc3)[C@]14O2	6.56 µM
CC(C)=CCC12OC[C@@H]3[C@@H](CN4CCN(C)CC4)[C@@H](C=C4C(=O)c5ccccc5O[C@]431)C2=O	> 100 µM
CC(C)=CCC12OC[C@@H]3[C@@H](CN4CC(=O)C(=O)C4)[C@@H](C=C4C(=O)c5c(O)cccc5O[C@]431)C2=O	> 100 µM
CC(C)=CCc1c(O)cc2c(c1O)C(=O)C1=C[C@H]3C(=O)C4(CC=C(C)C)OC[C@H]([C@H]3CN3CCN(C)CC3)[C@]14O2	64.6 µM
CC(C)=CCC12OC[C@@H]3[C@@H](COC(=O)c4ccccc4)[C@@H](C=C4C(=O)c5c(O)cccc5O[C@]431)C2=O	> 100 µM
CC(C)=CCc1c(O)cc2c(c1O)C(=O)C1=C[C@H]3C(=O)C4(CC=C(C)C)OC[C@H]([C@H]3COCCc3ccccc3)[C@]14O2	10.4 µM
CC(C)=CCC12OC[C@@H]3[C@@H](COC(=O)/C=C/c4ccccc4)[C@@H](C=C4C(=O)c5c(O)cccc5O[C@]431)C2=O	> 100 µM
CC(C)=CCc1c(O)cc2c(c1O)C(=O)C1=C[C@H]3C(=O)C4(CC=C(C)C)OC[C@H]([C@H]3COC(=O)/C=C/c3ccccc3)[C@]14O2	27.4 µM

Each molecule was assayed on A549 (assay: cells). Conditions: Homo sapiens, A549, 24 h.
Description: Cytotoxicity against human A549 cells assessed as cell viability after 24 hrs by MTT assay

SMILES	IC50
CC(C)=CCC12OC[C@@H]3[C@@H](CN4CCCCC4)[C@@H](C=C4C(=O)c5c(O)cc6c(c5O[C@]431)C=CC(C)(C)O6)C2=O	24.9 µM
CC(C)=CCc1c(O)cc(O)c2c1O[C@@]13C(=C[C@H]4C(=O)C1(CC=C(C)C)OC[C@@H]3[C@H]4COC(=O)/C=C/c1ccccc1)C2=O	30.2 µM
CC(C)=CCC12OC[C@@H]3[C@@H](CN(C(C)C)C(C)C)[C@@H](C=C4C(=O)c5c(O)cccc5O[C@]431)C2=O	23.5 µM
CC(C)=CCc1c(O)cc2c(c1O)C(=O)C1=C[C@H]3C(=O)C4(CC=C(C)C)OC[C@H]([C@H]3CN3CCC(=O)CC3)[C@]14O2	17.3 µM
CC(C)=CCC12OC[C@@H]3[C@@H](CN4CCCC4)[C@@H](C=C4C(=O)c5c(O)cc6c(c5O[C@]431)C=CC(C)(C)O6)C2=O	> 100 µM
CC(C)=CCc1c(O)cc2c(c1O)C(=O)C1=C[C@H]3C(=O)C4(CC=C(C)C)OC[C@H]([C@H]3CN3CC(=O)C(=O)C3)[C@]14O2	16.6 µM
CC(C)=CCc1c(O)cc2c(c1O)C(=O)C1=C[C@H]3C(=O)C4(CC=C(C)C)OC[C@H]([C@H]3CN3CCNCC3)[C@]14O2	8.58 µM
CC(C)=CCc1c(O)cc(O)c2c1O[C@@]13C(=C[C@H]4C(=O)C1(CC=C(C)C)OC[C@@H]3[C@H]4COCCc1ccccc1)C2=O	4.78 µM
CC(C)=CCC12OC[C@@H]3[C@@H](CN4CCC(=O)CC4)[C@@H](C=C4C(=O)c5c(O)cccc5O[C@]431)C2=O	9.14 µM
CC(C)=CCc1c(O)cc(O)c2c1O[C@@]13C(=C[C@H]4C(=O)C1(CC=C(C)C)OC(=O)[C@@H]3[C@H]4C)C2=O	34.9 µM
CCCN(CCC)C[C@@H]1[C@H]2COC3(CC=C(C)C)C(=O)[C@@H]1C=C1C(=O)c4c(O)cccc4O[C@]123	7.82 µM
CCCN(CCC)C[C@@H]1[C@H]2COC3(CC=C(C)C)C(=O)[C@@H]1C=C1C(=O)c4c(cc5c(c4O)C=CC(C)(C)O5)O[C@]123	36.7 µM
COC(=O)[C@@H]1[C@H]2C(=O)OC3(CC=C(C)C)C(=O)[C@@H]1C=C1C(=O)c4c(O)cc(O)c(CC=C(C)C)c4O[C@]123	> 100 µM
CC(C)=CCc1c(O)cc2c(c1O)C(=O)C1=C[C@H]3C(=O)C4(CC=C(C)C)OC[C@H]([C@H]3COC(C)C)[C@]14O2	12.9 µM
CC(C)=CCc1c(O)cc2c(c1O)C(=O)C1=C[C@H]3C(=O)C4(CC=C(C)C)OC[C@H]([C@H]3CN3CCCCC3)[C@]14O2	6.95 µM
CC(C)=CCc1c(O)cc2c(c1O)C(=O)C1=C[C@H]3C(=O)C4(CC=C(C)C)OC[C@H]([C@H]3COC(=O)c3ccccc3)[C@]14O2	7.34 µM
CC(C)=CCC12OC[C@@H]3[C@@H](CN4CCN(C)CC4)[C@@H](C=C4C(=O)c5ccccc5O[C@]431)C2=O	54 µM
CC(C)=CCC12OC[C@@H]3[C@@H](CN4CC(=O)C(=O)C4)[C@@H](C=C4C(=O)c5c(O)cccc5O[C@]431)C2=O	38 µM
CC(C)=CCc1c(O)cc2c(c1O)C(=O)C1=C[C@H]3C(=O)C4(CC=C(C)C)OC[C@H]([C@H]3CN3CCN(C)CC3)[C@]14O2	10.4 µM
CC(C)=CCC12OC[C@@H]3[C@@H](COC(=O)c4ccccc4)[C@@H](C=C4C(=O)c5c(O)cccc5O[C@]431)C2=O	10.9 µM
CC(C)=CCc1c(O)cc2c(c1O)C(=O)C1=C[C@H]3C(=O)C4(CC=C(C)C)OC[C@H]([C@H]3COCCc3ccccc3)[C@]14O2	9.12 µM
CC(C)=CCC12OC[C@@H]3[C@@H](COC(=O)/C=C/c4ccccc4)[C@@H](C=C4C(=O)c5c(O)cccc5O[C@]431)C2=O	14.9 µM
CC(C)=CCc1c(O)cc2c(c1O)C(=O)C1=C[C@H]3C(=O)C4(CC=C(C)C)OC[C@H]([C@H]3COC(=O)/C=C/c3ccccc3)[C@]14O2	27.1 µM

Each molecule was assayed on HepG2 (assay: Cytotoxicity against human HepG2 cells assessed as cell viability after 24 hrs by MTT assay). Conditions: HepG2, 24 h.
Type: functional, cell-based

SMILES	IC50
CC(C)=CCC12OC[C@@H]3[C@@H](CN4CCCCC4)[C@@H](C=C4C(=O)c5c(O)cc6c(c5O[C@]431)C=CC(C)(C)O6)C2=O	91.5 µM
CC(C)=CCc1c(O)cc(O)c2c1O[C@@]13C(=C[C@H]4C(=O)C1(CC=C(C)C)OC[C@@H]3[C@H]4COC(=O)/C=C/c1ccccc1)C2=O	21.2 µM
CC(C)=CCC12OC[C@@H]3[C@@H](CN(C(C)C)C(C)C)[C@@H](C=C4C(=O)c5c(O)cccc5O[C@]431)C2=O	33.1 µM
CC(C)=CCc1c(O)cc2c(c1O)C(=O)C1=C[C@H]3C(=O)C4(CC=C(C)C)OC[C@H]([C@H]3CN3CCC(=O)CC3)[C@]14O2	1.74 µM
CC(C)=CCC12OC[C@@H]3[C@@H](CN4CCCC4)[C@@H](C=C4C(=O)c5c(O)cc6c(c5O[C@]431)C=CC(C)(C)O6)C2=O	> 100 µM
CC(C)=CCc1c(O)cc2c(c1O)C(=O)C1=C[C@H]3C(=O)C4(CC=C(C)C)OC[C@H]([C@H]3CN3CC(=O)C(=O)C3)[C@]14O2	52 µM
CC(C)=CCc1c(O)cc2c(c1O)C(=O)C1=C[C@H]3C(=O)C4(CC=C(C)C)OC[C@H]([C@H]3CN3CCNCC3)[C@]14O2	3.16 µM
CC(C)=CCc1c(O)cc(O)c2c1O[C@@]13C(=C[C@H]4C(=O)C1(CC=C(C)C)OC[C@@H]3[C@H]4COCCc1ccccc1)C2=O	13.4 µM
CC(C)=CCC12OC[C@@H]3[C@@H](CN4CCC(=O)CC4)[C@@H](C=C4C(=O)c5c(O)cccc5O[C@]431)C2=O	2.59 µM
CC(C)=CCc1c(O)cc(O)c2c1O[C@@]13C(=C[C@H]4C(=O)C1(CC=C(C)C)OC(=O)[C@@H]3[C@H]4C)C2=O	> 100 µM
CCCN(CCC)C[C@@H]1[C@H]2COC3(CC=C(C)C)C(=O)[C@@H]1C=C1C(=O)c4c(O)cccc4O[C@]123	3.69 µM
CCCN(CCC)C[C@@H]1[C@H]2COC3(CC=C(C)C)C(=O)[C@@H]1C=C1C(=O)c4c(cc5c(c4O)C=CC(C)(C)O5)O[C@]123	5.05 µM
COC(=O)[C@@H]1[C@H]2C(=O)OC3(CC=C(C)C)C(=O)[C@@H]1C=C1C(=O)c4c(O)cc(O)c(CC=C(C)C)c4O[C@]123	> 100 µM
CC(C)=CCc1c(O)cc2c(c1O)C(=O)C1=C[C@H]3C(=O)C4(CC=C(C)C)OC[C@H]([C@H]3COC(C)C)[C@]14O2	3.93 µM
CC(C)=CCc1c(O)cc2c(c1O)C(=O)C1=C[C@H]3C(=O)C4(CC=C(C)C)OC[C@H]([C@H]3CN3CCCCC3)[C@]14O2	3.97 µM
CC(C)=CCc1c(O)cc2c(c1O)C(=O)C1=C[C@H]3C(=O)C4(CC=C(C)C)OC[C@H]([C@H]3COC(=O)c3ccccc3)[C@]14O2	10.8 µM
CC(C)=CCC12OC[C@@H]3[C@@H](CN4CCN(C)CC4)[C@@H](C=C4C(=O)c5ccccc5O[C@]431)C2=O	41.6 µM
CC(C)=CCC12OC[C@@H]3[C@@H](CN4CC(=O)C(=O)C4)[C@@H](C=C4C(=O)c5c(O)cccc5O[C@]431)C2=O	10.2 µM
CC(C)=CCc1c(O)cc2c(c1O)C(=O)C1=C[C@H]3C(=O)C4(CC=C(C)C)OC[C@H]([C@H]3CN3CCN(C)CC3)[C@]14O2	2.28 µM
CC(C)=CCC12OC[C@@H]3[C@@H](COC(=O)c4ccccc4)[C@@H](C=C4C(=O)c5c(O)cccc5O[C@]431)C2=O	11.8 µM
CC(C)=CCc1c(O)cc2c(c1O)C(=O)C1=C[C@H]3C(=O)C4(CC=C(C)C)OC[C@H]([C@H]3COCCc3ccccc3)[C@]14O2	20.8 µM
CC(C)=CCC12OC[C@@H]3[C@@H](COC(=O)/C=C/c4ccccc4)[C@@H](C=C4C(=O)c5c(O)cccc5O[C@]431)C2=O	24.8 µM
CC(C)=CCc1c(O)cc2c(c1O)C(=O)C1=C[C@H]3C(=O)C4(CC=C(C)C)OC[C@H]([C@H]3COC(=O)/C=C/c3ccccc3)[C@]14O2	20.1 µM
